Source: patent publication US6420558B1, “Aminopiperidine derivates as integrin αvβ3 antagonists” (Meiji Seika Kaisha, Ltd., priority 1998, dated 2002)

Assays:
[1] = molecular target: T1, integrin α5β1 (fibronectin receptor purified from the human placenta) (Homo sapiens, UniProt P05556+P08648); assay: α5β1 binding assay (fibronectin-fibronectin receptor binding assay); settings: fibronectin binding to human placenta fibronectin receptor; read-out: α5β1 Binding inhibitory activity
T1 construct: a fibronectin receptor (protein content: 52.1 μg/ml) purified from the human placenta; from tissue; host or cells: human placenta
Description: (§1) Integrin α5β1 antagonistic activity (lethality) was measured for the compounds according to the present invention in a fibronectin-fibronectin receptor binding assay system in accordance with the method of Kouns et al. (W. C. Kouns, D. Kirchhofer, P. Hadvary, A. Edenhofer, T. Weller, G. Pfenninger, H. R. Baumgartner, L. K. Jennings, and B. Steiner, Blood, 80, 2539-2547 (1992)).
Specifically, a fibronectin receptor (protein content: 52.1 μg/ml) purified from the human placenta by the method of Pytela et al. (R. Pytela, M. D. Pierschbacher, S. Argraves, S. Suzuki, and E. Ruoslahti, Method in Enzymology, 144, 475-489 (1987)) was diluted 25 times with TBS (20 mM Tris-HCl, 150 mM NaCl, 1 mM CaCl2, 1 mM MgCl2, pH 7.4), and distributed and coated on wells (50 μl/well) of a plate (Maxisorp, Nunc, 96 well Immuno Plate). The plate was then allowed to stand at 4° C. for one day, washed twice with TBS (200 μl/well), and then subjected to blocking with TBS (150 μl/well) containing 3% skim milk (DIFCO) at 4° C. overnight. After washing twice with TBS (200 μl/well) containing 0.05% Tween-20 and then washing twice with TBS (200 μl/well), purification was carried out according to the method of E. Engvall et al. (E. Engvall, E. Ruoslahti, and E. J. Miller, J. Exp. Med., 147, 1584-1595 (1978)), and 50 […] of fibronectin adjusted to 0.2 μg/ml by the addition of TBS (TBS-Tween) containing 0.01% Tween-20 was mixed with 50 μl of each test compound adjusted to each concentration in the wells, and a reaction was allowed to proceed at room temperature for 3 hr. After the completion of the reaction, the wells were washed five times with TBS-Tween. A solution prepared by diluting a peroxidase-labeled fibronectin antibody (CAPPEL) 500 times with TBS-Tween was added in an amount of 50 μl per well, and a reaction was allowed to proceed at room temperature for 1.5 hr. After washing five times with TBS-Tween (200 μl/well), ABTS (SIGMA) adjusted to 1 mg/ml by the addition of a ten-fold diluted POD-buffer (ZYMED) was added in an amount of 50 μl/well, and a reaction was allowed to proceed for 5 to 10 min. A 0.1 M citric acid buffer (pH 4.3) containing 0.05% NaN3 was added in an amount of 50 μl/well to stop the reaction, followed by the measurement of the absorbance at 415 nm with a microplate reader (MTP 32, Corona Electric) (reference: 675 nm). The total binding was defined as the absorbance after a reaction using 50 μl of TBS-Tween instead of the test compound, and the non-specific binding (100% inhibition) was defined as the absorbance after a reaction using 50 μl of TBS-Tween containing 2×10^−3 M RGDS. The inhibition was calculated by the following equation: [formula]
(§2) IC50 was determined from a primary regression line of the logarithm of each concentration of the test compound and the logarithm of (100−inhibition)/inhibition.

GP IIb/IIIa = GP IIb/IIIa (Homo sapiens, UniProt P05106+P08514); assay: GP IIb/IIIa antagonistic activity (method of Pharmacological Test 2 in WO 94/21599); assay type: binding
Description: GP IIb/IIIa Antagonistic Activity and Human Platelet Aggregation Inhibitory Activity
GP IIb/IIIa antagonistic activity was measured for the compounds according to the present invention. The measurement of the GP IIb/IIIa antagonistic activity was carried out according to the method described in Pharmacological Test 2 in WO 94/21599.

[2] = molecular target: T2, integrin αvβ3 (vitronectin receptor purified from the human placenta) (Homo sapiens, UniProt P05106+P06756); assay: αvβ3 binding assay (vitronectin-vitronectin receptor binding assay); settings: vitronectin binding to human placenta vitronectin receptor; read-out: integrin αvβ3 antagonistic activity, IC50 value
T2 construct: a vitronectin receptor (protein content: 118 μg/ml) purified from the human placenta; from tissue; host or cells: human placenta
Description: as §1, with “αvβ3” for “α5β1”, “activity” for “activity (lethality)”, “vitronectin-vitronectin” for “fibronectin-fibronectin”, “Jennings” for “Jennings,”
Specifically, a vitronectin receptor (protein content: 118 μg/ml) purified from the human placenta in accordance with the method of Pytela et al. (R. Pytela, M. D. Pierschbacher, S. Argraves, S. Suzuki, and E. Ruoslahti, Method in Enzymology, 144, 475-489 (1987)) was diluted 50 times with TBS (20 mM Tris-HCl, 150 mM NaCl, 1 mM CaCl2, 1 mM MgCl2, pH 7.4), and distributed and coated on wells (50 μl/well) of a plate (Maxisorp, Nunc, 96 well Immuno Plate). The plate was then allowed to stand at 4° C. for 1 day, washed twice with TBS (200 μl/well), and then subjected to blocking with TBS (150 μl/well) containing 1% bovine serum albumin (SIGMA) at 4° C. overnight. After washing twice with TBS (200 μl/well), 50 μl of vitronectin (CALBIOCHEM) adjusted to 0.2 μg/ml by the addition of TBS (TBS-Tween) containing 0.01% Tween-20 was mixed with 50 μl of each test compound adjusted to each concentration in wells, and a reaction was allowed to proceed at room temperature for 4 hr. After the completion of the reaction, the wells were washed five times with TBS-Tween. A solution prepared by diluting anti-vitronectin rabbit antiserum (CHEMICON) 500 times with TBS-Tween was added as a primary antibody in an amount of 50 μl/well, and a reaction was allowed to proceed at room temperature for 1.5 hr. After washing five times with 200 μl/well of TBS-Tween, a peroxidase (POD)-labeled anti-rabbit IgG antibody solution (CAPPEL) diluted 500 times with TBS-Tween was added as a secondary antibody in an amount of 50 μl/well, and a reaction was allowed to proceed at room temperature for 1.5 hr. After washing five times with TBS-Tween (200 μl/well), ABTS (2,2′-azino-bis(3-ethylbenzthiazoline-6-sulfonic acid), SIGMA) was adjusted to 1 mg/ml by the addition of a ten-fold diluted POD-buffer (ZYMED), and added in an amount of 50 μl/well, and a reaction was allowed to proceed for 5 to 10 min. A 0.1 M citric acid buffer (pH 4.3) containing 0.05% NaN3 was added in an amount of 50 μl/well to stop the reaction, followed by the measurement of the absorbance at 415 nm with a microplate reader (MTP 32, Corona Electric) (reference: 675 nm). The total binding was defined as the absorbance after a reaction using 50 μl of TBS-Tween instead of the test compound, and the non-specific binding (100% inhibition) was defined as the absorbance after a reaction using 50 μl of TBS-Tween containing 2×10^−3 M RGDS. The inhibition was calculated by the following equation: [formula]
as §2

[3] = system: human vascular smooth muscle cells adhering to immobilized human vitronectin; assay: Inhibitory activity against adhesion of human vascular smooth muscle cells to vitronectin; assay type: cell-based; settings: 1.5 h; human vitronectin-coated plate, 90 min
Description: Inhibitory Activity Against Adhesion of Human Vascular Smooth Muscle Cells to Vitronectin
The adhesion of human vascular smooth muscle cells =+to immobilized human vitronectin was measured in accordance with the method of Liaw et al. (Liaw L, Almeida M, Hart C E, Schwartz S M, and Giachelli C M, Circulation Research, 74 (2), 214-224 (1994)).
A Dulbecco's phosphate buffer (Dulbecco's PBS(−), Nissui Pharmaceutical Co., Ltd.) solution of human plasma-derived vitronectin (CALBIOCHEM) adjusted to a concentration of 4 μg/ml was first added to wells (50 μl/well) of a microplate (Maxisorp, Nunc), and a reaction for immobilization was allowed to proceed at 4° C. overnight. After washing twice with 150 μl of Dulbecco's phosphate buffer, a Dulbecco's phosphate buffer containing 10 mg/ml of bovine serum albumin (SIGMA) was added, followed by blocking at 37° C. for one hr. The assay plate was washed twice with 150 μl of Dulbecco's phosphate buffer.
Separately, human vascular smooth muscle cells cultivated at 37° C. under 5% carbon dioxide in a medium for vascular smooth muscle cells (Clonetics) were separated using a Dulbecco's phosphate buffer containing trypsin-EDTA (GIBCO BRL), washed with Dulbecco's phosphate buffer, and then suspended in a Dulbecco's modified Eagle's basal medium (Nissui Pharmaceutical Co., Ltd.) containing 0.1% bovine serum albumin to a concentration of 5×10^5/ml.
Next, 50 μl of a Dulbecco's modified Eagle's basal medium containing 10 mg/ml of bovine serum albumin with a medicament added thereto was added to the wells of the human vitronectin-coated assay microplate, followed by pre-cultivation under 5% carbon dioxide at 37° C. for 10 min. Thereafter, 50 μl of the medium with human vascular smooth muscle cells suspended therein was added thereto, and the plate was thoroughly stirred. A reaction was allowed to proceed under 5% carbon dioxide at 37° C. for 90 min. The reaction solution containing non-adherent cells were then removed, followed by washing three times with Dulbecco's phosphate buffer. For the adhered cells, 100 μl of a Dulbecco's phosphate buffer containing 4% paraformaldehyde (Wako Pure Chemical Industries, Ltd.) was added, and immobilization was allowed to proceed at room temperature for 10 min. Next, 100 μl of a Dulbecco's phosphate buffer containing 0.5% Toluidine Blue (Croma) and 4% paraformaldehyde was added, and staining was allowed to proceed at room temperature for 5 min, followed by thorough washing with distilled water. The inside of the wells was then air-dried, and a 1% aqueous sodium dodecylsulfate solution was then added to perform cytolysis. The absorbance of the microplate thus obtained was measured at 595 nm. […] The inhibition was calculated by the following equation. IC50 was determined from a primary regression line of the logarithm of each concentration of the test compound and the logarithm of (100−inhibition)/inhibition. [formula]

T1 sequence (P08648 42-894 limits assumed): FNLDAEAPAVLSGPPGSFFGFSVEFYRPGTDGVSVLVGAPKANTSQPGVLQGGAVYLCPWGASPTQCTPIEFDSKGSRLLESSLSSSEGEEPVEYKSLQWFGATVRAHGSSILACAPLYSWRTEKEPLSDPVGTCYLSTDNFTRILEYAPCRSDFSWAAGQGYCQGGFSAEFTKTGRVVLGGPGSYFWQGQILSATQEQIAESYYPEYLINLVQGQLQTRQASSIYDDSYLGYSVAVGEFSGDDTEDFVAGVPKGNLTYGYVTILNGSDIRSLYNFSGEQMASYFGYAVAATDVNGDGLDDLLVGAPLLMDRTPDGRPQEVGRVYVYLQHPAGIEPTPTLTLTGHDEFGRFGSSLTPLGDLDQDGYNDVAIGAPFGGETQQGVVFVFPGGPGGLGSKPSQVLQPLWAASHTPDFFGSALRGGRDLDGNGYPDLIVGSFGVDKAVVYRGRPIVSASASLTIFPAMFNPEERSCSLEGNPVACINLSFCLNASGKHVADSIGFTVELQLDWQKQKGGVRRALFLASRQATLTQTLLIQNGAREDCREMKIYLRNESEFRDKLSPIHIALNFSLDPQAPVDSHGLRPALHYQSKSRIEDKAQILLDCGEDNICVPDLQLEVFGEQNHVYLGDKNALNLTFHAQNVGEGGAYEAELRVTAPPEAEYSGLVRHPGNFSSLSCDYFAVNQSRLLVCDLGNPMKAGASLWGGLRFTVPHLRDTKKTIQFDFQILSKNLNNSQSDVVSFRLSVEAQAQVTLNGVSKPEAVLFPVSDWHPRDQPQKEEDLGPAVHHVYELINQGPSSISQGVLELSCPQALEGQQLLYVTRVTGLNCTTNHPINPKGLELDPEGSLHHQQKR
T1 sequence (P08648 895-1049 limits assumed): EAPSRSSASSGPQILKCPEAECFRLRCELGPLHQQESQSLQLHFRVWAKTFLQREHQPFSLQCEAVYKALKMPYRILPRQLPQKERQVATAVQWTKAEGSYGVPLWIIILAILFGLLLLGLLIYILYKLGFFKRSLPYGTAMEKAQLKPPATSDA
T1 sequence (P05556 21-798): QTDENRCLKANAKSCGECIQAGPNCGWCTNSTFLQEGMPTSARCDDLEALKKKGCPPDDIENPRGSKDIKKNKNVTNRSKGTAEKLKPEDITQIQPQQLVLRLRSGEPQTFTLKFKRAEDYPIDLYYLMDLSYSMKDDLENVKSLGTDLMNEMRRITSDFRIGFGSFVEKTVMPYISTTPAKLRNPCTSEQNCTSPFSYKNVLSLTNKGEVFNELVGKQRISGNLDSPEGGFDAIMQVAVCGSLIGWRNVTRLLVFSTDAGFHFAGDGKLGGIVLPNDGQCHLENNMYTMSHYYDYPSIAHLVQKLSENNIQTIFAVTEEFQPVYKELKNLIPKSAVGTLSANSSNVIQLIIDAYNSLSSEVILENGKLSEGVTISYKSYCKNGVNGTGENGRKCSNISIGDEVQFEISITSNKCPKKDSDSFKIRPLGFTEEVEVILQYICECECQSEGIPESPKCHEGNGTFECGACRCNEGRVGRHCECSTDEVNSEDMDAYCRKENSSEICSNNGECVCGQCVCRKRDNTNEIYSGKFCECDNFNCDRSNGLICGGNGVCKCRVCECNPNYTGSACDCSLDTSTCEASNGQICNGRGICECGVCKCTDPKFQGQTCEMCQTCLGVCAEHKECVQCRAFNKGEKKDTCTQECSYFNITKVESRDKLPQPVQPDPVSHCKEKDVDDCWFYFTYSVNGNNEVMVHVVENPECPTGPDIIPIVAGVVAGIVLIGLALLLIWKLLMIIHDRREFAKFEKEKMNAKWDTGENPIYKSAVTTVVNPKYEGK
Sequence of GP IIb/IIIa (P08514 32-887 limits assumed): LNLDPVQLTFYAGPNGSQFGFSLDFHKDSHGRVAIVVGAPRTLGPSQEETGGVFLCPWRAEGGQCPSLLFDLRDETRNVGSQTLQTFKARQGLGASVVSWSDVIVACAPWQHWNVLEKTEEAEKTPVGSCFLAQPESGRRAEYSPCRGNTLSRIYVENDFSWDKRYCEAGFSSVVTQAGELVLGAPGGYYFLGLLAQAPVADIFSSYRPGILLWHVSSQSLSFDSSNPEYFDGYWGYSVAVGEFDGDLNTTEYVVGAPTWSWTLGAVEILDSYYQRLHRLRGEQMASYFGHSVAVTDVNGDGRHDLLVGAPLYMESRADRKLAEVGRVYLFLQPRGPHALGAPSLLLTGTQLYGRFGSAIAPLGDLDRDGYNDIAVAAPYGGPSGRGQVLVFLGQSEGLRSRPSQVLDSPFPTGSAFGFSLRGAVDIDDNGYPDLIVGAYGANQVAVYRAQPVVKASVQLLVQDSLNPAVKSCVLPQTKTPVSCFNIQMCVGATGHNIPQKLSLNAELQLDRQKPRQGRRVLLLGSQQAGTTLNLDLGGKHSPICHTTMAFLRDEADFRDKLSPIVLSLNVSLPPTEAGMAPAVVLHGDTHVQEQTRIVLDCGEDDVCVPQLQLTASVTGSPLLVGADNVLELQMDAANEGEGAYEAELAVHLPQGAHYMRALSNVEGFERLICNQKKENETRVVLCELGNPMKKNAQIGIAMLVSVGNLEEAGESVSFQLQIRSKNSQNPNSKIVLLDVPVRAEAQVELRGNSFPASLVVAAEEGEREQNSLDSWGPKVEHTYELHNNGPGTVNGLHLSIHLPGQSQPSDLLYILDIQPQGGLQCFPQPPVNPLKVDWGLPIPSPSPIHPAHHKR
Sequence of GP IIb/IIIa (P08514 891-1039 limits assumed): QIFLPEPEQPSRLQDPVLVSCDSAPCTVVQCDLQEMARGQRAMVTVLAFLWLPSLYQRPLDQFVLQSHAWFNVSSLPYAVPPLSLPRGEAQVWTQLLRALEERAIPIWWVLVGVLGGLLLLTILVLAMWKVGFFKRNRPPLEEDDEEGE
Sequence of GP IIb/IIIa (P05106 27-788): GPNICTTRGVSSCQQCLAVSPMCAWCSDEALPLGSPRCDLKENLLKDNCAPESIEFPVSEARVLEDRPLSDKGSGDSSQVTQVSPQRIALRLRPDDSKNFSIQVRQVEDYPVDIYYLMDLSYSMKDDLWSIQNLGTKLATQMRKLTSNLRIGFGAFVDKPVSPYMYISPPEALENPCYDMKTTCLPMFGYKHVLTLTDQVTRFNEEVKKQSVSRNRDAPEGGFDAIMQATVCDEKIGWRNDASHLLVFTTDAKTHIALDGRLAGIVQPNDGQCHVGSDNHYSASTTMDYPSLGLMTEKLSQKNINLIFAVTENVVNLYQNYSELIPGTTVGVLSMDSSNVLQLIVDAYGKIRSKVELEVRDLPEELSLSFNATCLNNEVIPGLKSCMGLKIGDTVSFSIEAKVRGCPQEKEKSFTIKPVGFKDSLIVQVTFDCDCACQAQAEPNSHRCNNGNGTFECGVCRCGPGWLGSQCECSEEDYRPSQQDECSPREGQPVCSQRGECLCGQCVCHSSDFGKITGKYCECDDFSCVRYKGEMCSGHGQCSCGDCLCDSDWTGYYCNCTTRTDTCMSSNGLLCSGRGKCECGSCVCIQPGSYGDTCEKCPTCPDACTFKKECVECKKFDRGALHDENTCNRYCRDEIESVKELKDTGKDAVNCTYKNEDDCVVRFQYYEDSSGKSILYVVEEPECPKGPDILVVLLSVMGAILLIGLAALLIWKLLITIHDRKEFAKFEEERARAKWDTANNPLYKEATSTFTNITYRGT
T2 sequence (P06756 31-889 limits assumed): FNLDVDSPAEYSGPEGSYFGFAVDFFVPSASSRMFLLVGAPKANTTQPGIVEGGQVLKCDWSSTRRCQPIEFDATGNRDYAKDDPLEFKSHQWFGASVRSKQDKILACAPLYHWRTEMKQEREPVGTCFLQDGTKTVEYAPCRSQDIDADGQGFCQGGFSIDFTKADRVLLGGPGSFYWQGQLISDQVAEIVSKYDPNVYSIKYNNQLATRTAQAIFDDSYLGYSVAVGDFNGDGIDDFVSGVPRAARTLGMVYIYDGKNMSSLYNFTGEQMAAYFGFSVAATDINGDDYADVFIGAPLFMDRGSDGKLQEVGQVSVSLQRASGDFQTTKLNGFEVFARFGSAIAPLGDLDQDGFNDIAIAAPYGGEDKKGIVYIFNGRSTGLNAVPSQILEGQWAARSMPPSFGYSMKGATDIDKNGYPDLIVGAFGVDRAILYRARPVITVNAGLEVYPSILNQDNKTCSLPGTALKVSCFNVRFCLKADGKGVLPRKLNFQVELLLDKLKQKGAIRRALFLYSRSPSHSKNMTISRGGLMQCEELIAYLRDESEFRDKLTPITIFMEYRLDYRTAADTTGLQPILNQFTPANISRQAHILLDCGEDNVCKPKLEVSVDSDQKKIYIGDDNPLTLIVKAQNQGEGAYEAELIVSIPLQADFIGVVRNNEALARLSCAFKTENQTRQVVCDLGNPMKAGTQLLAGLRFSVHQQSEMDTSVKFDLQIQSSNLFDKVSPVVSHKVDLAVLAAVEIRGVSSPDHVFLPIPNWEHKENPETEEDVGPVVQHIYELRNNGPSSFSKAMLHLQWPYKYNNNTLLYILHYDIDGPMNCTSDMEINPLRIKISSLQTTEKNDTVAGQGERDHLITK
T2 sequence (P06756 891-1048 limits assumed): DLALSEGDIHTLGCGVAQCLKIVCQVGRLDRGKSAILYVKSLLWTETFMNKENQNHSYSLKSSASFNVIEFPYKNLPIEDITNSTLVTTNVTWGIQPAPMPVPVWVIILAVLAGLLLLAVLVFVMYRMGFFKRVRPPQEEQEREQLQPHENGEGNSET
T2 sequence (P05106 27-788): as the sequence (P05106 27-788) above

Row | Compound | IC50 [1] [nM] | IC50 (GP IIb/IIIa) [nM] | IC50 [2] [nM] | IC50 [3] [nM]
1 | O=C(N[C@@H](CNC(=O)c1ccc(N2CCC(Nc3nc4ccccc4[nH]3)CC2)cc1)C(=O)O)OCc1ccccc1 [Example 24, 3-[4-{4-(1H-Benzimidazol-2-ylamino)piperidin-1-yl}benzoylamino]-(2S)-{(benzyloxy-carbonyl)amino}propionic acid] | 6900 | ≤ 1 |  | 
2 | CCCCS(=O)(=O)N[C@@H](CNC(=O)c1ccc(N2CCC(Nc3nc4ccccc4[nH]3)CC2)cc1)C(=O)O [Example 28, (2S)-Butane-1-sulfonylamino-3-[4-{4-(1H-benzimidazol-2-ylamino)piperidin-1-yl}benzoylamino]-propionic acid] | 1300 | ≤ 1 | ≤ 1 | 
3 | O=C(NC[C@H](NS(=O)(=O)c1ccc([N+](=O)[O-])cc1)C(=O)O)c1ccc(N2CCC(Nc3nc4ccccc4[nH]3)CC2)cc1 [Example 35, 3-[4-{4-(1H-Benzimidazol-2-ylamino)piperidin-1-yl}benzoylamino]-(2S)-{(4-nitro-benzenesulfonyl)amino}propionic acid] |  | ≤ 1 | ≤ 1 | ≤ 70
4 | O=C(NC[C@H](NS(=O)(=O)c1ccccc1)C(=O)O)c1ccc(N2CCC(NC3=NCCCN3)CC2)c(F)c1F [Example 57, (2S)-Benzenesulfonylamino-3-[2,3-difluoro-4-{4-(1,4,5,6-tetrahydropyrimidin-2-ylamino)piperidin-1yl}benzoylamino]propionic acid] |  | ≤ 1 | ≤ 1 | ≤ 70
5 | O=C(NC[C@H](NS(=O)(=O)c1ccccc1)C(=O)O)c1ccc(N2CCC(Nc3nc4ccccc4[nH]3)CC2)cc1 [Example 10, (2S)-Benzenesulfonylamino-3-[4-{4-(1H-benzimidazol-2-ylamino)piperidin-1-yl}benzoylamino]-propionic acid] | 1600 |  |  | 
6 | O=C(NC[C@H](NS(=O)(=O)c1ccccc1)C(=O)O)c1ccc(N2CCC(NC3=NCCCN3)CC2)cc1 [Example 3, (2S)-Benzenesulfonylamino-3-[4-{4-(1,4,5,6-tetrahydropyrimidin-2-ylamino)piperidin-1-yl}benzoyl-amino]propionic acid] | 1600 |  |  | 

The next lines start with the values.

Row | IC50 [1] [nM] | IC50 (GP IIb/IIIa) [nM] | IC50 [2] [nM] | IC50 [3] [nM] | Compound
7 | 11500 | ≤ 1 | ≤ 1 |  | Nc1ccc(S(=O)(=O)N[C@@H](CNC(=O)c2ccc(N3CCC(NC4=NCCCN4)CC3)c(F)c2)C(=O)O)cc1 [Example 68, (2S)-(4-Aminobenzenesulfonyl)amino-3-[3-fluoro-4-{4-(1,4,5,6-tetrahydropyrimidin-2-ylamino)-piperidin-1-yl}benzoylamino]propionic acid]
8 |  | ≤ 1 | ≤ 1 | ≤ 70 | COc1cc(C(=O)NC[C@H](NS(=O)(=O)c2ccccc2)C(=O)O)ccc1N1CCC(NC2=NCCCN2)CC1 [Example 93, (2S)-Benzenesulfonylamino-3-[3-methoxy-4-{4-(1,4,5,6tetrahydropyrimidin-2-ylamino)piperidin-1-yl}-benzoylamino]propionic acid]
9 |  | ≤ 1 | ≤ 1 | ≤ 70 | O=C(NC[C@H](NS(=O)(=O)c1ccc(O)cc1)C(=O)O)c1ccc(N2CCC(NC3=NCCCN3)CC2)c(F)c1 [Example 75, 3-[3-Fluoro-4-{4-(1,4,5,6-tetrahydropyrimidin-2-ylamino)piperidin-1-yl}benzoyl-amino]-(2S)-{(4-hydroxybenzenesulfonyl)amino}propionic acid]
